The record followed here is US12611387B2, “Compound and composition for inducing neuroprotection” (REST THERAPEUTICS, priority 2020, dated 2026).

For experiment [1], the system named is Aβ25-35 oligomer-intoxicated mice. In words: Passive avoidance test, neuroprotection design. The format is in vivo. The settings on record: doses 0.03; 0.1; 0.3; 1.0 and 3 mg/Kg i.p., neuroprotection design (not shown). The protocol: (§1) The neuroprotective effect of the compounds, i.e. the ability thereof to protect cells from Aβ25-35 oligomer neurotoxicity and neurodegeneration, is also tested (FIG. 10). The test compounds are thus administered on the same day as the injection of the Aβ25-35 oligomers and are continued to be administered on a daily basis up to day 7 after the injection of the oligomers, at which time the mice are subjected to the YMT, PAT, MWT or ORT. The brain's anatomy is analysed and neuronal cells are counted by immunohistochemistry on mice sacrificed at D13. The biochemical analyses for the quantification of markers of oxidative stress and apoptosis were carried out at D16 on a group of mice that had been subjected to the WMT (FIG. 10).
This test measures non-spatial (contextual) long-term memory. The apparatus used for this test was a box with two compartments (15×20×15 cm high), one illuminated with white PVC walls and the other in the dark with black PVC walls and a grid floor. A guillotine door separated the compartments. A 60 W lamp was positioned 40 cm above the box and illuminated the white compartment. […] The time taken by the mouse to re-enter the darkened compartment (STL-Tg) and the number of vocalizations were recorded. […] After 5 s the door was raised, the step-through latency (STL-R), i.e. the time it took the mouse to enter the darkened compartment, was measured. […]

The next experiment deals with IL-6. The experiment is described as follows: IL-6 ELISA in hippocampus, Aβ25-35 oligomer neuroprotection design. In kind it is in vivo. To be noted: 0.3 mg/Kg i.p., compared to intoxicated but untreated mice. The protocol: as §1
Their brains were removed, and the hippocampi were isolated, weighed and frozen at −80° C. awaiting biochemical analysis.
Interleukin 6 (IL-6), a cytokine inflammatory marker, and the levels of the apoptosis markers Bcl2 and Bax proteins were measured in mouse hippocampi by the ELISA tests listed in Table 1 hereinbelow. Bcl2 is often referred to as an anti-apoptotic marker and Bax as a pro-apoptotic marker. […] After centrifugation (10,000 g, 5 min, 4° C.), the supernatants containing the markers to be measured were aliquoted and stored at −80° C. until the ELISA test was carried out according to the supplier's instructions. […]
On the technique in general: In an ELISA, binding on a coated surface is turned into a signal by an enzyme label.

The subject of a further experiment is Iba-1. The experiment is described as follows: Immunohistochemical quantification of Iba-1 (microgliosis). In kind it is in vivo, mice. The settings on record: 0.3 mg/Kg i.p. As for the experimental part: as §1
(§2) They were previously anaesthetised by i.p. injection of 200 μL of a solution of ketamine (80 mg/Kg) and xylazine (10 mg/Kg), then the tissues were fixed by intracardiac perfusion of 50 mL of a saline solution followed by 50 mL of Antigenfix® fixative (Diapath). The samples were kept for a further 48 hours in the fixative at 4° C., and then the mouse brains were stored in a 30% sucrose solution in PBS, before being sliced.
(§3) Slices were taken of each area of the brain, in particular the cortex, the nucleus basalis magnocellularis and the hippocampus (i.e. between bregma +1.8 and bregma −2.8 according to the stereotaxic coordinates of the mouse brain, Paxinos et al., 2004). Serial coronal sections with a thickness of 25 μm were cut with a freezing microtome (Microm HM 450, Thermo Fisher) and stored at −20° C. in a cryoprotective solution. […]
(§4) Immunohistochemical labelling is carried out in a conventional manner. […] After rinsing with PBS, the sections were mounted in a mounting fluid (ProLong, ThermoFischer) and images of each section were taken with a confocal fluorescence microscope (Leica SPE) for different sub-regions of the hippocampus such as the stratum radiatum (Rad), the stratum moleculare (Mol), the polymorphic layer of the dentate gyrus (PoDG) and for the cortex, the lateral parietal association area (LPtA). […]

For the next experiment, the system named is GFAP. The experiment is described as follows: Immunohistochemical quantification of GFAP (astrogliosis). In kind it is in vivo, mice. The settings on record: 0.3 mg/Kg i.p. As for the experimental part:
as §1, §2, §3, §4

The mark [2] stands for this setting: all brain areas tested (Rad, Mol, PoDG, LPtA).

For the compound `NC12CC3CC(C1)CC(CCF)(C3)C2` [FENM, 3-(2-fluoroethyl)adamantan-1-amine], the “protective effect on latency in the passive avoidance test, effective doses” value in experiment [1] was “procured neuroprotection as regards memory for all doses tested from 0.1 mg/Kg i.p. up to and including 3 mg/Kg”. The “IL-6 level in the hippocampus” value in the experiment with IL-6 is recorded as “significantly lower than that of untreated, intoxicated mice”. Also, the “Iba-1 labelling (microglial response)” value with Iba-1 (setting [2]) is “significantly decreases the astrocytic and microglial response in all of the brain areas tested”. For the same compound, in the experiment on GFAP (setting [2]), the “GFAP labelling (astrocytic response)” value is “significantly decreases the astrocytic and microglial response in all of the brain areas tested”.
`CC12CC3CC(C)(C1)CC(N)(C3)C2` [memantine, 3,5-Dimethyl-1-adamantanamine, reference compound]: the “protective effect on latency in the passive avoidance test, effective doses” value in experiment [1] is “only observed at two of the doses tested (0.1 and 1 mg/Kg i.p.)”. In addition, the “IL-6 level in the hippocampus” value with IL-6 is “did not result in a significant decrease in IL-6 levels”. Moreover, in the experiment on Iba-1 (PoDG area), the “Iba-1 labelling (microglial response)” value was “positive effect in the PoDG area”. In addition, the “Iba-1 labelling (microgliosis)” value with Iba-1 (cortex (LPtA)) is “no effect”. Further, the “GFAP labelling (astrogliosis)” value in the experiment with GFAP (Mol) is “no effect on astrogliosis in the Mol”. Also, the “GFAP labelling (astrocytic response)” value in the experiment with GFAP (PoDG area) is listed as “positive effect in the PoDG area”.
